# Results taken from patent USRE48267E1, “Variants of C-type natriuretic peptide” (priority 2009, dated 2020).
# Where a SMILES comes first, the peptide text is derived from it. Bridges are numbered along the chain shown (N, C = ends). The star is where a group is joined. MeO(CH2CH2O)23CH2CH2CO = COCCOCCOCCOCCOCCOCCOCCOCCOCCOCCOCCOCCOCCOCCOCCOCCOCCOCCOCCOCCOCCOCCOCCOCCC(=O)*
# Biological target: T1, NPR-B (Mus musculus, UniProt Q6VVW5)
# T1 construct: Murine NIH3T3 cells express endogenously the CNP signaling receptor, NPR-B; endogenous in cells; host or cells: NIH3T3
# T1 sequence (Q6VVW5 17-1047): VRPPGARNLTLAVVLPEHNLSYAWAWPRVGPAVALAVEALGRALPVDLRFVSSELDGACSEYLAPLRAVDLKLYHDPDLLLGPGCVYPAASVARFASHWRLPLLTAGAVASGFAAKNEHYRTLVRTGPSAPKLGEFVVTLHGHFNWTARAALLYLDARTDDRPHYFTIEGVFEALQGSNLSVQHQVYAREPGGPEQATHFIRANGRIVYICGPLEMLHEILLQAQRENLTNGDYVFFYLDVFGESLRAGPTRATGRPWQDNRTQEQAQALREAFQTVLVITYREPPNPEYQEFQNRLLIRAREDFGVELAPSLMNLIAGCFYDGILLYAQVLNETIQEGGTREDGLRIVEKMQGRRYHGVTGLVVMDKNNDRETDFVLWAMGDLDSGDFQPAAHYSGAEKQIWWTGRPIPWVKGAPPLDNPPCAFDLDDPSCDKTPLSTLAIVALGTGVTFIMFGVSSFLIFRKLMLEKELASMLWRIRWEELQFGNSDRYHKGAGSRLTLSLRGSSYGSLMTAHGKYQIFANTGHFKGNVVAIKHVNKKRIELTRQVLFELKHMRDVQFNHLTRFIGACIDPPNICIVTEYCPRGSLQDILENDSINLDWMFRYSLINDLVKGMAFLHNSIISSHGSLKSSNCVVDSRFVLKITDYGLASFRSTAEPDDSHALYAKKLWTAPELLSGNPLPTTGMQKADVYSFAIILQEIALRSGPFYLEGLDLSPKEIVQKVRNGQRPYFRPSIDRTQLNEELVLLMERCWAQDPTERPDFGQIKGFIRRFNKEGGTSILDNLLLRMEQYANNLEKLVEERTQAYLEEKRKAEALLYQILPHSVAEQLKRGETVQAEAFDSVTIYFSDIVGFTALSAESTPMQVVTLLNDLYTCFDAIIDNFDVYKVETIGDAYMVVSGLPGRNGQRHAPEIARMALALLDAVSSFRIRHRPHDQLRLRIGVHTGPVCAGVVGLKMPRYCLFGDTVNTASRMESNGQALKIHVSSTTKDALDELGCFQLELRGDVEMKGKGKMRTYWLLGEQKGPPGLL
# Assay: stimulation of cGMP production in NIH3T3 cells
# Format: cell-based, murine
# Conditions: NIH3T3 cells
# In short: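 NIH3T3 cells (endogenous murine NPR-B) preincubated 15 min at 37° C. in PBS/DMEM with 0.75 mM isobutylmethylxanthine, then given CNP variant for 15 min at 37° C. cGMP in lysates by CatchPoint cGMP assay, duplicates. Values at 10 nM or 1 uM variant normalized to cell number and to 1 uM wtCNP22.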
smiles,measurement,value
CC[C@H](C)[C@@H]1NC(=O)[C@H](CCCNC(=N)N)NC(=O)[C@H](CC(=O)O)NC(=O)[C@H](CC(C)C)NC(=O)[C@H](CCCCN)NC(=O)[C@H](CC(C)C)NC(=O)CNC(=O)[C@H](Cc2ccccc2)NC(=O)[C@@H](NC(=O)CNC(=O)[C@H](CCCNC(=N)N)NC(=O)[C@H](CO)NC(=O)[C@H](CC(C)C)NC(=O)CNC(=O)[C@H](CCCNC(=N)N)NC(=O)[C@H](CCCNC(=N)N)NC(=O)[C@H](CC(N)=O)NC(=O)[C@H](C)NC(=O)CNC(=O)CCOCCOCCOCCOCCOCCOCCOCCOCCOCCOCCOCCOCCOCCOCCOCCOCCOCCOCCOCCOCCOCCOCCOCCOC)CSSC[C@@H](C(=O)O)NC(=O)CNC(=O)[C@H](CC(C)C)NC(=O)CNC(=O)[C@H](CO)NC(=O)[C@H](CCSC)NC(=O)[C@H](CO)NC(=O)CNC1=O [PEO24-GANRR-CNP22(K4R)] ({MeO(CH2CH2O)23CH2CH2CO}-GANRRGLSRGCFGLKLDRIGSMSGLGC-OH; disulfide 11-27),NPR-B stimulation activity / cGMP production compared with wtCNP22 (in words),stimulated greater cGMP production than PEO24-CNP22 and PEO24-CNP22 (K4R)
